# Experimental data as given in publication PMC5919452 (Japanese Journal of Cancer Research : Gann, 1994).
# Key:
# [1] = test system: cAMP‐dependent protein kinase; assay: cAMP-dependent protein kinase inhibition; type: biochemical; details: 20 μM
# [2] = target: insulin receptor kinase (Homo sapiens, UniProt P06213); assay: insulin receptor kinase inhibition; type: biochemical; details: read-out: IC50 for insulin receptor kinase
# [3] = target: erbB‐2 (Homo sapiens, UniProt P04626); assay: erbB-2 tyrosine kinase inhibition; type: biochemical; details: read-out: IC50 for erbB‐2
# [4] = target: T1, EGF receptor (Homo sapiens, UniProt P00533); assay: kinetic study of kinase inhibition; type: biochemical
# [5] = target: T1, EGF receptor; assay: autophosphorylation of EGF receptor in A431 cells; type: cell-based
# [6] = target: p43^v‐abl; assay: p43v-abl tyrosine kinase inhibition; type: biochemical; details: read-out: IC50 for p43^v‐abl
# [7] = target: epidermal growth factor (EGF) receptor kinase (Homo sapiens, UniProt P00533); assay: EGF receptor kinase inhibition; type: biochemical; details: read-out: IC50 for epidermal growth factor (EGF) receptor kinase
# [8] = test system: casein kinase I; assay: casein kinase I inhibition; type: biochemical; details: 20 μM
# [9] = target: Cdc2 kinase (Homo sapiens, UniProt P06493); assay: Cdc2 kinase inhibition; type: biochemical; details: 20 μM
# [10] = test system: casein kinase II; assay: casein kinase II inhibition; type: biochemical; details: 20 μM
# [11] = target: protein kinase C; assay: protein kinase C inhibition; type: biochemical; details: read-out: IC50 for protein kinase C; serine/threonine kinase
# [12] = target: p60^c‐src (Homo sapiens, UniProt P12931); assay: p60c-src tyrosine kinase inhibition; type: biochemical; details: read-out: IC50 for p60^c‐src
# Chain of p60^c‐src (P12931 whole entry): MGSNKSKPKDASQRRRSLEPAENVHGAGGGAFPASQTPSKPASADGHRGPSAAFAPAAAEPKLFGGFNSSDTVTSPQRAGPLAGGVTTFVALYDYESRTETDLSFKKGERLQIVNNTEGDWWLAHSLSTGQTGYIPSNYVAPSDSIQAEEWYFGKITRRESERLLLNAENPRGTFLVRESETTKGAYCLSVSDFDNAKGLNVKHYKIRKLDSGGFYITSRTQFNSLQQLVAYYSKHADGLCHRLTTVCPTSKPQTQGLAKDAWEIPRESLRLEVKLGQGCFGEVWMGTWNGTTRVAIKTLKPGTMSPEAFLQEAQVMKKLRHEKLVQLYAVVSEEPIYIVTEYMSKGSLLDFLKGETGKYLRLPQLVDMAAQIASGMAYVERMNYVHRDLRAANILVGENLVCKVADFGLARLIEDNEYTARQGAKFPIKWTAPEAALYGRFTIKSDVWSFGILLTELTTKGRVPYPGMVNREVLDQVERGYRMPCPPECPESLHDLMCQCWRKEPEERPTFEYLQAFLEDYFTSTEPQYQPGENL
# T1 sequence (P00533 25-1210): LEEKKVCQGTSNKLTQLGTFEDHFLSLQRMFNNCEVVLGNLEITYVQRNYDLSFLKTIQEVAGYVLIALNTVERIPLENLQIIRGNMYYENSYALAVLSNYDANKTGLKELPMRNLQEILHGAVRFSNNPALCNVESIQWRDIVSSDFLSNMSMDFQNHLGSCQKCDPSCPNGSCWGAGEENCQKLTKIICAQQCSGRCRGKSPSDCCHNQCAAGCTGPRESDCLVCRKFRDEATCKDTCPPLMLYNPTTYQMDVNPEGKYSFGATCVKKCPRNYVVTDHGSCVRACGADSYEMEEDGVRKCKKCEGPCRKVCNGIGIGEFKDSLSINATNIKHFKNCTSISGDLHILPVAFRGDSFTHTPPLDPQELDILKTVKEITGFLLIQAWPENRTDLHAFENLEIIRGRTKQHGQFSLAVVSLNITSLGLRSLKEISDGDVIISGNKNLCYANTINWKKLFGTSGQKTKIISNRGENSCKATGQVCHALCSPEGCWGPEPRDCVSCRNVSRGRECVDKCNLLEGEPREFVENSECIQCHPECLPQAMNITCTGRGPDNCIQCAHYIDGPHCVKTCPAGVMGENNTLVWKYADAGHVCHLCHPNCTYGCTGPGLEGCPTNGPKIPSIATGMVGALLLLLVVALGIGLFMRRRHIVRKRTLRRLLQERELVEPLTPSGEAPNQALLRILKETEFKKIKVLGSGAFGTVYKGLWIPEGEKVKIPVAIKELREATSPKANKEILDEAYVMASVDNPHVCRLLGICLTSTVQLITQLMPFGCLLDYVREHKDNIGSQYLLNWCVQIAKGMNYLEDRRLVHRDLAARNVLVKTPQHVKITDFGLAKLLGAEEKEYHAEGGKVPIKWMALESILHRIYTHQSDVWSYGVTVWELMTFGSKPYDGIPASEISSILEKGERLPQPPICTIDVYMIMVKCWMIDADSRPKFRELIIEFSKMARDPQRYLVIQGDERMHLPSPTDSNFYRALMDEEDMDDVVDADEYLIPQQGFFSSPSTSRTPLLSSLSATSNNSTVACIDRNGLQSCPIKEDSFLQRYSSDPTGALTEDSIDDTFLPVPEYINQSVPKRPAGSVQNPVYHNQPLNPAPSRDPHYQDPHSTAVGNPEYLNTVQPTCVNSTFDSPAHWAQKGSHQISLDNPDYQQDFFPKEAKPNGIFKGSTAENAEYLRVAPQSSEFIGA
# Chain of Cdc2 kinase (P06493 whole entry): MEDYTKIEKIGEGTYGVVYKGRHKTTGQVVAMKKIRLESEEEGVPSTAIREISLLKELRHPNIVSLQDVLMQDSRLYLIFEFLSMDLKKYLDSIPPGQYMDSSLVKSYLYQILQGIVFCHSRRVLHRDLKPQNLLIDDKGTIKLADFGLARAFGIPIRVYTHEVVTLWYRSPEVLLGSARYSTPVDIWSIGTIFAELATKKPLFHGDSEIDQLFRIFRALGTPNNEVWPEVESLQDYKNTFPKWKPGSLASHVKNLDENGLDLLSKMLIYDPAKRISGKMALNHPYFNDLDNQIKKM
# Chain of Cdc2 kinase (P14635 whole entry partner): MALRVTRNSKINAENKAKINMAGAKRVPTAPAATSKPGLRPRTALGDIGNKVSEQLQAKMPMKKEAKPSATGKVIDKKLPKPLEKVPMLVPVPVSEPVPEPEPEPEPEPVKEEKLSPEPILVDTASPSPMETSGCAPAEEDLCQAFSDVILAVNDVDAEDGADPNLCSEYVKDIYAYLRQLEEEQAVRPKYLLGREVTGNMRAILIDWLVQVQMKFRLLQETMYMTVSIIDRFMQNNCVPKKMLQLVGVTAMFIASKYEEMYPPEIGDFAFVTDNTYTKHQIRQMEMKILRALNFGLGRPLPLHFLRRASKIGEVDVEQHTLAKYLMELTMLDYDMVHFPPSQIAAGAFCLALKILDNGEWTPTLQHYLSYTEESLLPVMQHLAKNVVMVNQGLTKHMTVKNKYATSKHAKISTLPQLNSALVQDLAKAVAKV
# Chain of insulin receptor kinase (P06213 28-1382): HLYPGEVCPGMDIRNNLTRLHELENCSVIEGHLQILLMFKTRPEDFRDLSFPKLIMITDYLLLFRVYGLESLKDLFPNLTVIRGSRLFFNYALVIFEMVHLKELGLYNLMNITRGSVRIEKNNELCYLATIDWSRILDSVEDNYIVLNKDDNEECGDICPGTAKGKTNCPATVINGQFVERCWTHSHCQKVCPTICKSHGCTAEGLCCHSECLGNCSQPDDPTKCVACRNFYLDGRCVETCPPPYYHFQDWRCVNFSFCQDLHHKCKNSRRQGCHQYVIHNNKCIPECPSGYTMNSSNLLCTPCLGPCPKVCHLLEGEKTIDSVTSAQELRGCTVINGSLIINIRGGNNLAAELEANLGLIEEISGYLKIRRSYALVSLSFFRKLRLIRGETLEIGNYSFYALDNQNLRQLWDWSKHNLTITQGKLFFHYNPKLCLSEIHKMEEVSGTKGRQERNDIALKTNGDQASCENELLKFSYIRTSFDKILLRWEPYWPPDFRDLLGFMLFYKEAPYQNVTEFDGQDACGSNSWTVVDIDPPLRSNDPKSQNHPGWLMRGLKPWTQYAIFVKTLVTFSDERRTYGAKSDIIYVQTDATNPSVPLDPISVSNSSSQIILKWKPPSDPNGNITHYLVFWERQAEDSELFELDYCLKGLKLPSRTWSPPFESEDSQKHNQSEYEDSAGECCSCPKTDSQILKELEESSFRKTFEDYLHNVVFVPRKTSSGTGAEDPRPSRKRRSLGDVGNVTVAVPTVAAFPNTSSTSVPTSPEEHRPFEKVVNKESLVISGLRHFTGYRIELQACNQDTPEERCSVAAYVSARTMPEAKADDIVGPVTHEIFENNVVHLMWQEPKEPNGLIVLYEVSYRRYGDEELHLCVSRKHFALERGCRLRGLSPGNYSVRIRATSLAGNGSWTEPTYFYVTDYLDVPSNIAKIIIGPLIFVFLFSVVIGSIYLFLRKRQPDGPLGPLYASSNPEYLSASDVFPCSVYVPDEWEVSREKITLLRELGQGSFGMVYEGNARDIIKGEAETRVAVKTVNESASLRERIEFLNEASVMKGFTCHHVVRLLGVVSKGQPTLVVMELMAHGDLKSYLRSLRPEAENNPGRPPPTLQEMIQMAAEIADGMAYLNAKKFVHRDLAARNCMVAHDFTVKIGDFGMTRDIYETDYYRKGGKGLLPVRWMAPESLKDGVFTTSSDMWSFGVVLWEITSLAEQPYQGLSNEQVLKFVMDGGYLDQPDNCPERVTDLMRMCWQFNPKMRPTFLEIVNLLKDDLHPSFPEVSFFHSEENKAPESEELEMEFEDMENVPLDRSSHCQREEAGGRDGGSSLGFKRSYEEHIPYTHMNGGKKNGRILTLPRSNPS
# Chain of epidermal growth factor (EGF) receptor kinase (P00533 25-1210): as the sequence (P00533 25-1210) above
smiles,measurement,setting,value
O=C1OC(c2ccc(O)c(O)c2)=C/C1=C\c1ccc(O)c(O)c1 [BE‐23372M],inhibition of cAMP‐dependent protein kinase,[1],not inhibited
same,IC50,[2],3.3 µM
same,IC50,[3],0.42 µM
same,mode of inhibition with respect to ATP,[4]; ATP,competitive
same,mode of inhibition with respect to the substrate peptide,[4]; substrate peptide,competitive
same,Autophosphorylation of EGP receptor in A431 cells,[5],inhibited
same,IC50,[6],1 µM
same,IC50,[7],0.03 µM
same,inhibition of casein kinase I,[8],not inhibited
same,inhibition of Cdc2 kinase,[9],not inhibited
same,inhibition of casein kinase II,[10],not inhibited
same,IC50,[11],4.1 µM
same,IC50,[12],4.5 µM
